# Measurements as given in article PMC12260505, “First-in-Human Phase I/IIa Study of the First-in-Class CDK2/4/6 Inhibitor PF-06873600 Alone or with Endocrine Therapy in Patients with Breast Cancer” (Clinical Cancer Research, 2025).
# Tests used:
# [1] = Dose-limiting toxicities in dose escalation (modified toxicity probability interval method); type: in vivo, human
# Protocol: Part 1 included adult patients with HR^+/HER2^− advanced breast cancer or mBC (third- or fourth-line setting), locally recurrent/advanced or metastatic TNBC, or advanced platinum-resistant epithelial ovarian cancer/fallopian tube cancer/primary peritoneal cancer who received oral PF-06873600 at doses of 1 to 50 mg twice daily or oral PF-06873600 plus ET (letrozole or fulvestrant). Primary endpoints for part 1 dose escalation determined safety and tolerability to define dose-limiting toxicities (DLT), estimate the maximum tolerated dose, and select the recommended dose for expansion (RDE). Safety endpoints included adverse events (AE) characterized by type, frequency, severity [as graded by NCI Common Terminology Criteria for Adverse Events (CTCAE) version 4.03], timing, seriousness, and relationship to study therapy. Laboratory abnormalities were characterized by type, frequency, severity (as graded by NCI CTCAE version 4.03), timing, vital sign abnormalities, and heart rate–corrected QT interval (e.g., QTcF). Secondary endpoints included PK, preliminary antitumor activity as assessed using RECIST version 1.1, time-to-event endpoints including objective response rate (ORR), duration of response (DoR), progression-free survival (PFS), time to progression (TTP), and modulation of tumor CDK biomarkers [phosphorylated Rb (pRb), Ki67]. Exploratory endpoints included molecular profiling of tumor and ctDNA and the relationship to clinical outcome.
# In part 1A, dose escalation monotherapy, patients received escalating doses of a single-agent immediate release (IR) formulation of PF-06873600, 1 to 50 mg twice daily orally on a continuous basis, with dose escalation following the modified toxicity probability interval method. Seven dose levels were evaluated: 1, 2, 5, 10, 25, 35, and 50 mg. An alternative intermittent dosing regimen (5 days on/2 days off) was also explored at 35 mg twice daily. Part 1B combination dose-finding involved PF-06873600 IR 25 mg twice daily with ET (letrozole or fulvestrant, each administered per standard of care). Letrozole was administered orally once daily together with PF-06873600. No dose adjustment for letrozole was permitted, but dosing interruptions were allowed. Fulvestrant 500 mg was administered intramuscularly on cycle 1 day 1 and day 15, cycle 2 day 1, and then monthly thereafter (±3 days) to accommodate dosing on day 1 of each cycle. No dose adjustment for fulvestrant was permitted. Part 1C evaluated two modified release (MR) formulations of PF-06873600: one in the single-dose setting and the other in the twice-daily setting. A cycle was defined as 28 days, regardless of missed doses or dose delays.
# DLT was the primary endpoint of the study, summarized by dose level using the per-protocol analysis set for patients in the dose escalation portion of the study. Efficacy analysis was summarized by dose cohorts for part 2 of the study. For part 1, no formal efficacy analysis was presented. For part 2, tumor response was presented in the form of patient data listings that included, but were not limited to, tumor type, starting dose, tumor response at each visit, and best overall response. In addition, progression date, death date, date of first response, last tumor assessment date, and date of last contact were listed. ORR, PFS, overall survival, TTP, and DoR were summarized and presented as data permitted. For response-based metrics (best overall response, ORR, and DoR), analyses were presented on the basis of confirmed responses. Analyses of PFS and TTP were defined as the time from the date of the first dose. Summaries of the number and percentage of patients with PFS and TTP and data listings by tumor type and dose were generated based on data availability. The 95% confidence intervals (CI) for medians and quartiles were generated based on the Brookmeyer–Crowley method, whereas CIs for the estimated probability of an event at a particular time point were generated using the Greenwood formula. […]
# CDK9 = molecular target: CDK9; parameters: method as in PMID 34110834; conditions: cited from earlier work
# [2] = part 1A 35 mg twice daily, N = 2, DLT-evaluable set
# [3] = part 1A 50 mg twice daily, N = 8, DLT-evaluable set
smiles,measurement,setting,value
C[C@@]1(O)CCC[C@H]1n1c(=O)c(C(F)F)cc2cnc(NC3CCN(S(C)(=O)=O)CC3)nc21 [PF-06873600],DLTs at the monotherapy RDE,"[1]; 25 mg twice daily, single-agent or combination groups",No DLTs
same,"DLT, Cardiac arrest",[1]; [2],0 n (%)
same,"DLT, Colitis",[1]; [2],0 n (%)
same,"DLT, Fatigue",[1]; [2],0 n (%)
same,"DLT, Febrile neutropenia",[1]; [2],0 n (%)
same,"DLT, Multiple organ dysfunction syndrome",[1]; [2],0 n (%)
same,"DLT, Neutrophil count decreased",[1]; [2],2 (100.0) n (%)
same,"DLT, Platelet count decreased",[1]; [2],1 (50.0) n (%)
same,"DLT, Thrombocytopenia",[1]; [2],0 n (%)
same,Patients with any DLTs,[1]; [2],2 (100.0) n (%)
same,"DLT, Cardiac arrest",[1]; [3],1 (12.5) n (%)
same,"DLT, Colitis",[1]; [3],1 (12.5) n (%)
same,"DLT, Fatigue",[1]; [3],1 (12.5) n (%)
same,"DLT, Febrile neutropenia",[1]; [3],3 (37.5) n (%)
same,"DLT, Multiple organ dysfunction syndrome",[1]; [3],1 (12.5) n (%)
same,"DLT, Neutrophil count decreased",[1]; [3],0 n (%)
same,"DLT, Platelet count decreased",[1]; [3],0 n (%)
same,"DLT, Thrombocytopenia",[1]; [3],1 (12.5) n (%)
same,Patients with any DLTs,[1]; [3],4 (50.0) n (%)
same,Patients with DLTs (all treatment-related),"[1]; part 1A, 42 patients evaluable for DLT",14.3%
same,Recommended dose for expansion (RDE),[1]; single-agent and combination dosing groups,25 mg twice daily
same,Ki,CDK9,19.6 nM
